Assay results published in US20110306606A1, “NOVEL 2,6-SUBSTITUTED-3-NITROPYRIDINE DERIVATIVE, METHOD FOR PREPARING SAME, AND PHARMACEUTICAL COMPOSITION INCLUDING SAME” (priority 2008, published 2011).

Tested on: Osteoblasts (Calvarial cells)
Assay: Cytotoxicity test (MTT)
Conditions: 1 μM compound, 72 hours, in comparison with vehicle control
Description: For the preparation of osteoblasts (Calvarial cells), the calvaria were aseptically dissected from 1 to 2-day-old neonatal ICR mice and subjected to continuous reaction with a 0.2% collagenase solution to separate osteoblasts. The cell-suspended supernatant was centrifuged to recover osteoblasts which were grown to full confluence in an α-MEM supplemented with 10% FBS and then diluted to a desired cell density for use in the experiment.
Cytotoxicity of the compounds of the present invention was evaluated by carrying out the experiment described below.
The vehicle control group was established to contain 0.2% DMSO. 100 μL/well of the diluted drugs were dispensed into 96-well plates to which osteoblasts (calvarial cells) prepared in Experimental Example 1 were then added at a density of 1.0×10^4 cells/100 μL/well. Here, the final compound concentration in the cell culture was 1 μM, and the vehicle control group contained 0.1% DMSO. The cells were cultured in a 5% CO2 inhibitor at 37° for 72 hours. 25 μL of 3-(4,5-dimethyl-2-thiazolyl)-2,5-diphenyl-2H-tetrazolium bromide (MTT) dissolved in PBS (2 mg/mL) was added to each cell culture 4 hours before the end of culture. After completion of the reaction, the plates were centrifuged, the media were discarded, and 100 μL of formazan was added and dissolved in dimethyl sulfoxide (DMSO). Finally, the absorbance of the developed plates was measured at 540 nm. The cell viability was expressed as % concentration in comparison with the vehicle control group.

SMILES	Cell viability (%) Calvarial cell [%]
Cc1ccc(Nc2nc(N(C)CC3OCCO3)ccc2[N+](=O)[O-])cc1 [Compound 4, 2-(4-methylphenylamino)-6-[(N-[1,3]-dioxolan-2-ylmethyl)methylamino]-3-nitropyridine]	104
Cc1ccc(Nc2nc(NCc3ccncc3)ccc2[N+](=O)[O-])cc1 [Compound 8]	92
COc1ccc(Nc2nc(N(C)CCO)ccc2[N+](=O)[O-])cc1 [Compound 24, 2-(4-methoxyphenylamino)-6-[(N-methyl-2-hydroxy)ethylamino]-3-nitropyridine]	99
CN(CC1OCCO1)c1ccc([N+](=O)[O-])c(Nc2ccc(C(C)(C)C)cc2)n1 [Compound 33, 2-[4-(t-butyl)phenylamino]-6-[(N-[1,3]-dioxolan-2-ylmethyl)methylamino]-3-nitropyridine]	93
CC1=NCCN1c1ccc([N+](=O)[O-])c(Nc2ccc(C#N)cc2)n1 [Compound 48, 2-(4-cyanophenylamino)-6-[(2-methyl-4,5-dihydro)imidazol-1-yl]-3-nitropyridine]	103
Nc1ccc(Nc2nc(NCCN3CCOCC3)ccc2[N+](=O)[O-])cc1 [Compound 68, 2-[4-(amino)phenylamino]-6-[2-(morpholin-1-yl)ethylamino]-3-nitropyridine]	103
Nc1ccc(Nc2nc(NCCCN3CCOCC3)ccc2[N+](=O)[O-])cc1 [Compound 69, 2-[4-(amino)phenylamino]-6-[3-(morpholin-1-yl)propylamino]-3-nitropyridine]	110
Nc1cccc(Nc2nc(NCCN3CCOCC3)ccc2[N+](=O)[O-])c1 [Compound 83, 2-[3-(amino)phenylamino]-6-[2-(morpholin-1-yl)ethylamino]-3-nitropyridine]	99
Nc1cccc(Nc2nc(NCCCN3CCOCC3)ccc2[N+](=O)[O-])c1 [Compound 84, 2-[3-(amino)phenylamino]-6-[3-(morpholin-1-yl)propylamino]-3-nitropyridine]	108
CN(CC1OCCO1)c1ccc([N+](=O)[O-])c(Nc2ccc(N3CCOCC3)cc2)n1 [Compound 111, 2-(4-morpholinophenylamino)-6-[(N-[1,3]-dioxolan-2-ylmethyl)methylamino]-3-nitropyridine]	95
CN(CC1OCCO1)c1ccc([N+](=O)[O-])c(Nc2ccc(F)c(F)c2)n1 [Compound 127, 2-[(3,4-difluoro)phenylamino]-6-[(N-[1,3]-dioxolan-2-ylmethyl)-methylamino]-3-nitropyridine]	99
CCN(CCO)c1ccc([N+](=O)[O-])c(Nc2ccc(-c3csc(C4CCCCC4)n3)cc2)n1 [Compound 156, 2-[4-(2-cyclohexylthiazol-4-yl)phenylamino]-6-[(N-ethyl-2-hydroxyethyl)amino]-3-nitropyridine]	108
CN1CCN(c2ccc([N+](=O)[O-])c(Nc3ccc(-c4csc(C5CCCCC5)n4)cc3)n2)CC1 [Compound 159]	100
CCN(CC)c1ccc(Nc2nc(NC)ccc2[N+](=O)[O-])cc1F [Compound 175, 2-[(3-fluoro-4-diethylamino)phenylamino]-6-(methylamino)-3-nitropyridine]	104
CCN(CC)c1ccc(Nc2nc(NC(C)C)ccc2[N+](=O)[O-])cc1F [Compound 176, 2-[(3-fluoro-4-diethylamino)phenylamino]-6-(isopropylamino)-3-nitropyridine]	109
CCN(CC)c1ccc(Nc2nc(NC(C)(C)C)ccc2[N+](=O)[O-])cc1F [Compound 178, 2-[(3-fluoro-4-diethylamino)phenylamino]-6-(t-butylamino)-3-nitropyridine]	109
CCN(CC)c1ccc(Nc2nc(N3CCC(O)CC3)ccc2[N+](=O)[O-])cc1F [Compound 179, 2-[(3-fluoro-4-diethylamino)phenylamino]-6-(4-hydroxypiperidino)-3-nitropyridine]	104
CCN(CC)c1ccc(Nc2nc(-n3ccnc3C(C)C)ccc2[N+](=O)[O-])cc1F [Compound 180, 2-[(3-fluoro-4-diethylamino)phenylamino]-6-[(2-isopropyl)imidazol-1-yl]-3-nitropyridine]	100
CCN(CC)c1ccc(Nc2nc(N3CCN=C3C)ccc2[N+](=O)[O-])cc1F [Compound 181, 2-[(3-fluoro-4-diethylamino)phenylamino]-6-[(2-methyl-4,5-dihydro)imidazol-1-yl]-3-nitropyridine]	106
CCN(CC)c1ccc(Nc2nc(N3CCNCC3)ccc2[N+](=O)[O-])cc1F [Compound 182, 2-[(3-fluoro-4-diethylamino)phenylamino]-6-(piperazin-1-yl)-3-nitropyridine]	101

SMILES	Cell viability (%) Calvarial cell [%]
CCN(CC)c1ccc(Nc2nc(N3CCN(C)CC3)ccc2[N+](=O)[O-])cc1F [Compound 183, 2-[(3-fluoro-4-diethylamino)phenylamino]-6-(4-methylpiperazin-1-yl)-3-nitropyridine]	113
CCN(CC)c1ccc(Nc2nc(N3CCOCC3)ccc2[N+](=O)[O-])cc1F [Compound 184, 2-[(3-fluoro-4-diethylamino)phenylamino]-6-morpholino-3-nitropyridine]	110
CCN(CC)c1ccc(Nc2nc(NCc3cccnc3)ccc2[N+](=O)[O-])cc1F [Compound 185, 2-[(3-fluoro-4-diethylamino)phenylamino]-6-[(3-pyridyl)methylamino]-3-nitropyridine]	111
CCN(CC)c1ccc(Nc2nc(NCc3ccncc3)ccc2[N+](=O)[O-])cc1F [Compound 186, 2-[(3-fluoro-4-diethylamino)phenylamino]-6-[(4-pyridyl)methylamino]-3-nitropyridine]	113
CCN(CC)c1ccc(Nc2nc(N3CCC(N)CC3)ccc2[N+](=O)[O-])cc1F [Compound 187, 2-[(3-fluoro-4-diethylamino)phenylamino]-6-(4-aminopiperidino)-3-nitropyridine]	102
CCN(CC)c1ccc(Nc2nc(NCCN3CCOCC3)ccc2[N+](=O)[O-])cc1F [Compound 188, 2-[(3-fluoro-4-diethylamino)phenylamino]-6-[2-(morpholin-1-yl)ethylamino]-3-nitropyridine]	111
CCN(CC)c1ccc(Nc2nc(NCCCn3ccnc3)ccc2[N+](=O)[O-])cc1F [Compound 189, 2-[(3-fluoro-4-diethylamino)phenylamino]-6-[(3-imidazol-1-yl)propylamino]-3-nitropyridine]	129
CCN(CC)c1ccc(Nc2nc(NCCCN3CCOCC3)ccc2[N+](=O)[O-])cc1F [Compound 190, 2-[(3-fluoro-4-diethylamino)phenylamino]-6-[(3-morpholin-1-yl)propylamino]-3-nitropyridine]	123
O=[N+]([O-])c1ccc(N2CCC(O)CC2)nc1Nc1ccc(N2CCOCC2)c(F)c1 [Compound 194, 2-[(3-fluoro-4-morpholino)phenylamino]-6-(4-hydroxypiperidino)-3-nitropyridine]	107
CC1=NCCN1c1ccc([N+](=O)[O-])c(Nc2ccc(N3CCOCC3)c(F)c2)n1 [Compound 195, 2-[(3-fluoro-4-morpholino)phenylamino]-6-[(2-methyl-4,5-dihydro)imidazol-1-yl]-3-nitropyridine]	104
CC(C)c1nccn1-c1ccc([N+](=O)[O-])c(Nc2ccc(N3CCOCC3)c(F)c2)n1 [Compound 196, 2-[(3-fluoro-4-morpholino)phenylamino]-6-[(2-isopropyl)imidazol-1-yl]-3-nitropyridine]	100
CN1CCN(c2ccc([N+](=O)[O-])c(Nc3ccc(N4CCOCC4)c(F)c3)n2)CC1 [Compound 200, 2-[(3-fluoro-4-morpholino)phenylamino]-6-(4-methylpiperazin-1-yl)-3-nitropyridine]	107
CC(C)Nc1ccc([N+](=O)[O-])c(Nc2ccc(N3CCSCC3)c(F)c2)n1 [Compound 204, 2-[(3-fluoro-4-thiomorpholino)phenylamino]-6-(isopropylamino)-3-nitropyridine]	102
CC1=NCCN1c1ccc([N+](=O)[O-])c(Nc2ccc(N3CCSCC3)c(F)c2)n1 [Compound 207, 2-[(3-fluoro-4-thiomorpholino)phenylamino]-6-[(2-methyl-4,5-dihydro)imidazol-1-yl]-3-nitropyridine]	102
CC(C)c1nccn1-c1ccc([N+](=O)[O-])c(Nc2ccc(N3CCSCC3)c(F)c2)n1 [Compound 208, 2-[(3-fluoro-4-thiomorpholino)phenylamino]-6-[(2-isopropyl)imidazol-1-yl]-3-nitropyridine]	101
CC(C)(C)Nc1ccc([N+](=O)[O-])c(Nc2ccc(N3CCSCC3)c(F)c2)n1 [Compound 211, 2-[(3-fluoro-4-thiomorpholino)phenylamino]-6-(t-butylamino)-3-nitropyridine]	110
O=[N+]([O-])c1ccc(N2CCC(O)CC2)nc1Nc1ccc(N2CCNCC2)c(F)c1 [Compound 218, 2-[(3-fluoro-4-piperazino)phenylamino]-6-(4-hydroxypiperidino)-3-nitropyridine]	96
CC(C)c1nccn1-c1ccc([N+](=O)[O-])c(Nc2ccc(N3CCNCC3)c(F)c2)n1 [Compound 219, 2-[(3-fluoro-4-piperazino)phenylamino]-6-[(2-isopropyl)imidazol-1-yl]-3-nitropyridine]	89
CC(C)(C)Nc1ccc([N+](=O)[O-])c(Nc2ccc(N3CCNCC3)c(F)c2)n1 [Compound 222, 2-[(3-fluoro-4-piperazino)phenylamino]-6-(t-butylamino)-3-nitropyridine]	95
